72 molecules from ChEMBL document CHEMBL3507680, “University of Dundee, Gates Library screen for HepG2 cell viability” can be followed below.

Each structure is given as a SMILES string.

The data set in a line: Human HepG2 cell viability assay in 384 well format. Format: toxicity, cell-based. Also noted: dose 125 nL, time 70.5 hour; concentration not given beside the values. Conditions: HepG2 cells, read-out: Inhibition.

`Cc1cc(C)c2cc(CNC3CCCCC3)c3nn(C)c(=O)n3c2c1`: the cytotoxicity at 70.5 h came out at 5.59%.

On to `Cc1cc(C)c2cc(CNCc3ccco3)c3nn(C)c(=O)n3c2c1`, for which the cytotoxicity at 70.5 h was found to be 19.9%.

Regarding `CCCn1ncc(CN2C[C@@H]3CCCN3C[C@@H]2Cc2ccccc2)c1C`, the cytotoxicity at 70.5 h was -2.55%.

Take `CCCN(C(=O)c1cccnc1)c1nc2c(s1)CCc1c-2cnn1C`: the cytotoxicity at 70.5 h came out at 21%.

For the molecule `Cc1cc(-c2ccccc2C(=O)O)nc(C2CCCCN2C)n1` (configuration not stated), the cytotoxicity at 70.5 h is -6.42%.

With `Cc1cc(-c2cc(F)ccc2C(=O)O)nc(C2CCCN(C)C2)n1` (configuration not stated), the cytotoxicity at 70.5 h was found to be 2.71%.

On to `CC(C)N1CCC(Cc2cncc(-c3cc(F)ccc3C(=O)O)n2)C1` (configuration not stated), for which the cytotoxicity at 70.5 h is -6.34%.

`CN(C)Cc1ccnc(C2CCCN2Cc2cccc(F)c2F)n1` (configuration not stated): the cytotoxicity at 70.5 h is -2.17%.

Regarding `CN(C(=O)COc1ccc(F)cc1)[C@@H]1CC[C@@H](n2ccnc2)[C@@H]1O`, the cytotoxicity at 70.5 h is -4.21%.

On to `O=C(c1ccncc1)N1CC[C@@H](O)[C@@H](O)[C@H](N2CCC(F)(F)CC2)C1`, for which the cytotoxicity at 70.5 h was -0.846%.

With `Cc1cccc(CN2CCCC2c2cccc(CCC(=O)O)n2)c1` (configuration not stated), the cytotoxicity at 70.5 h was 15.7%.

`O[C@@H]1CN(Cc2ccncc2)C[C@H]1Oc1ccccc1`: the cytotoxicity at 70.5 h is -5.71%.

With `CNc1cccc(C2CCCN(C(=O)c3cncs3)C2)n1` (configuration not stated), the cytotoxicity at 70.5 h was -4.52%.

Turning to `CNC(=O)c1cccc(C2CNCCN2C(=O)c2ccn(C)n2)c1` (configuration not stated), the cytotoxicity at 70.5 h is 0.974%.

Take `CCc1cc(C(=O)N2CCCC2c2nc(O)cc(CC)n2)on1` (configuration not stated): the cytotoxicity at 70.5 h was -1.1%.

As to `Cc1nc(Nc2ncccn2)cc(C2CCCN2Cc2ncc[nH]2)n1` (configuration not stated), the cytotoxicity at 70.5 h is -2.88%.

In the case of `Cc1cncc(CN2C[C@@H](O)[C@H](Oc3ccccc3)C2)c1`, the cytotoxicity at 70.5 h was -0.379%.

In the case of `Cc1ccc(S(=O)(=O)N2CCC(O)(CN(C)C)C2)cc1` (configuration not stated), the cytotoxicity at 70.5 h was -4.32%.

As for `NCc1cn(-c2ccccc2C(=O)NCc2ccccc2Cl)cn1`, the cytotoxicity at 70.5 h was -8.27%.

With `COc1ccccc1CNC(=O)c1ccccc1-n1cnc(CN)c1`, the cytotoxicity at 70.5 h is -9.04%.

In the case of `CNC(=O)C1(c2cnccn2)CCCN1C(=O)c1cccnc1OC` (configuration not stated), the cytotoxicity at 70.5 h was -9.36%.

Regarding `Cc1nc(O)c2nnn(C[C@H]3CCCN3C(=O)c3ccccc3C)c2n1`, the cytotoxicity at 70.5 h stood at 11.5%.

Regarding `C=Cn1ncc(CN2C[C@@H]3CCCN3C[C@@H]2CCSC)c1C`, the cytotoxicity at 70.5 h is -6.32%.

In the case of `CN(C)CC1(O)CCN(S(=O)(=O)c2cccc(F)c2)C1` (configuration not stated), the cytotoxicity at 70.5 h is -4.11%.

With `CNc1cccc(C2CCCN(C(=O)Cc3ccccc3)C2)n1` (configuration not stated), the cytotoxicity at 70.5 h is -7.78%.

Regarding `CN(C)S(=O)(=O)N1CCCC(c2cccc(Cc3ccc(Cl)cc3)n2)C1` (configuration not stated), the cytotoxicity at 70.5 h came out at 17.5%.

With `CCS(=O)(=O)N1CCCC(Cc2cnccn2)C1` (configuration not stated), the cytotoxicity at 70.5 h was -6.07%.

For the molecule `Cc1cn[nH]c1C1CCCCN1C(=O)CCc1ccc(F)cc1` (configuration not stated), the cytotoxicity at 70.5 h is -6.22%.

On to `CNc1cc(CNC(=O)c2cccnc2)nc(-c2ccncc2)n1`, for which the cytotoxicity at 70.5 h was -1.87%.

In the case of `CCc1ccc(C(=O)N2CC[C@H](Oc3cccnc3C)[C@@H](O)CC2)cc1`, the cytotoxicity at 70.5 h came out at 14.4%.

For the molecule `Nc1cc(CCC2CN(Cc3cccc(C(=O)O)c3)CCO2)ccn1` (configuration not stated), the cytotoxicity at 70.5 h was -7.61%.

Consider `Cc1n[nH]cc1C(=O)N1CCCC(c2cccc(-n3ccnc3)n2)C1` (configuration not stated), for which the cytotoxicity at 70.5 h is -7.73%.

Take `Cc1ccc(C(=O)N2CCCC(c3[nH]ncc3S(C)(=O)=O)C2)s1` (configuration not stated): the cytotoxicity at 70.5 h was found to be 10.6%.

Turning to `O=C(Cc1cccs1)N1CCC(O)(CN2CCc3ccccc3C2)C1` (configuration not stated), the cytotoxicity at 70.5 h was -4.88%.

For the molecule `CCc1cc(C(=O)N2CCCC(c3[nH]ncc3S(C)(=O)=O)C2)no1` (configuration not stated), the cytotoxicity at 70.5 h was -7.59%.

In the case of `Cc1ccsc1C(=O)N1CCC(O)(CN2CCc3ccccc3C2)C1` (configuration not stated), the cytotoxicity at 70.5 h is -6.62%.

Take `CN(C(=O)C1CCOCC1)[C@@H]1CCC[C@@H](N2CCOCC2)[C@@H]1O`: the cytotoxicity at 70.5 h is -5.89%.

As for `CC(O)c1cnn(-c2ccccc2)c1` (configuration not stated), the cytotoxicity at 70.5 h is 45.1%.

Regarding `Cc1ncc(C(=O)N2CCCC2c2c(C)nn(C)c2C)s1` (configuration not stated), the cytotoxicity at 70.5 h was -2.56%.

Turning to `C[C@H](O)c1cnn(-c2ccccc2)c1`, the cytotoxicity at 70.5 h was -1.87%.

For `Cc1cc(C)c(C(=O)N(C)CCN(C)C(=O)OC(C)(C)C)[nH]1`, the cytotoxicity at 70.5 h turned out to be 6.57%.

For `Cc1cc(C(=O)N(C)CCN(C)C(=O)OC(C)(C)C)oc1C`, the cytotoxicity at 70.5 h was -2.24%.

For the molecule `Cc1ccc(C(C)N(C)C(=O)c2ccc(=O)n(C)c2)s1` (configuration not stated), the cytotoxicity at 70.5 h is -0.24%.

Regarding `CCc1ccsc1C(=O)NC(C#N)CC(C)C` (configuration not stated), the cytotoxicity at 70.5 h is -2.59%.

Regarding `CCN1CCCC(NC(=O)c2ccc(C)[nH]c2=O)C1` (configuration not stated), the cytotoxicity at 70.5 h was -8.86%.

In the case of `Cc1ccc(C(=O)NC2CCN(C(C)C)C2)c(=O)[nH]1` (configuration not stated), the cytotoxicity at 70.5 h was -14.4%.

With `Cc1ccc(C(=O)NC2CCCN(C)C2)c(=O)[nH]1` (configuration not stated), the cytotoxicity at 70.5 h was -12.5%.

With `Cc1nn(C)c(C)c1S(=O)(=O)NCC1(C(N)=O)CCOCC1`, the cytotoxicity at 70.5 h is -11.5%.

On to `CC(C(=O)NCC(C)(C)c1ccc2c(c1)OCO2)n1ccnc1` (configuration not stated), for which the cytotoxicity at 70.5 h is -1.09%.

With `CCOCCN1CCN(c2ccc(C#N)cn2)CC1`, the cytotoxicity at 70.5 h was -9.92%.

Turning to `Cc1nc(NCc2nncn2C2CC2)c2c(CC(C)C)csc2n1`, the cytotoxicity at 70.5 h was 20%.

As for `Cc1cc(C)c(NC(=O)Nc2cnn(CC(O)CN(C)C)c2)c(C)c1` (configuration not stated), the cytotoxicity at 70.5 h was -13.2%.

As to `N#Cc1ccc(Cl)cc1NCC1CC1`, the cytotoxicity at 70.5 h was -5.4%.

For `Cc1nc(COC(=O)c2cccc3c2OCCO3)cs1`, the cytotoxicity at 70.5 h is -11.2%.

As for `CS(=O)(=O)N1CCC(CNc2c(Cl)cccc2C#N)CC1`, the cytotoxicity at 70.5 h is -1.91%.

Turning to `Cc1cc(C)c(CNc2cnn(CC(O)CN(C)C)c2)c(C)c1` (configuration not stated), the cytotoxicity at 70.5 h was -11.8%.

Take `N#CC1COCCN1C(=O)c1ccc2[nH]ccc2c1` (configuration not stated): the cytotoxicity at 70.5 h was determined as 0.401%.

Turning to `CCOCCN1CCN(c2ccc(C#N)cn2)CC1CC` (configuration not stated), the cytotoxicity at 70.5 h was 1.12%.

For the molecule `CCOCCN1CCN(c2ncccc2C#N)CC1CC` (configuration not stated), the cytotoxicity at 70.5 h was -3.73%.

For the molecule `Cc1oc(-c2ccco2)nc1CN1CCc2cnc(C(C)C)nc2C1`, the cytotoxicity at 70.5 h was -12%.

In the case of `CC(NCc1cccc(COC2CCCC2)c1)c1cnn(C)c1` (configuration not stated), the cytotoxicity at 70.5 h was -3.04%.

For the molecule `O=C(NC1CC1)c1ccc(SCc2cscn2)cc1`, the cytotoxicity at 70.5 h was -9.79%.

In the case of `Cc1noc(C(C)Nc2ccc3oc(C)nc3c2)n1` (configuration not stated), the cytotoxicity at 70.5 h came to 11.9%.

For `N#Cc1ccccc1CN1CCc2sccc2C1`, the cytotoxicity at 70.5 h is -8.96%.

As for `CC(CNC(=O)c1cccnc1O)Cn1cccn1` (configuration not stated), the cytotoxicity at 70.5 h is -7.01%.

`Cc1ccc(CNC(=O)Nc2nnc(C3CC3)s2)n1C`: the cytotoxicity at 70.5 h is -0.672%.

For `CCC(C#N)NC(=O)CCNC(=O)C(C)(C)C` (configuration not stated), the cytotoxicity at 70.5 h was 0.625%.

Regarding `COc1cc(Cl)ccc1C(=O)NCc1n[nH]c(C)n1`, the cytotoxicity at 70.5 h turned out to be 1.46%.

Regarding `CCN(CC)S(=O)(=O)N1CCc2nc(C3CCNCC3)ncc2C1`, the cytotoxicity at 70.5 h was -4.41%.

For the molecule `CC(C)c1nn(C)c(Cl)c1CNCC(=O)N1CCN(C)CC1`, the cytotoxicity at 70.5 h was -4.93%.

As to `COc1cc(CN(CCCN(C)C)Cc2ccccn2)cc2c1OCO2`, the cytotoxicity at 70.5 h was found to be 0.223%.

Turning to `Fc1ccc(OCCCNC2=NCCN2)cc1`, the cytotoxicity at 70.5 h is -14.3%.
